Columns and labels:
[1] = system: Lucilia cuprina larvae; assay: whole plant or invertebrate; settings: in Equus caballus, read-out: activity (mortality in %)
[2] = system: Spodoptera litura; assay: Test against larva of Spodoptera litura (leaf dip); assay type: in vivo; settings: 100 ppm of the active compound; third instar larvae; after 7 days
Method: Solvent: Dimethylformamide 3 parts by weight
Emulsifier: Polyoxyethylene alkyl phenyl ether 1 part by weight
(§1) To prepare an appropriate formulation of an active compound, 1 part by weight of the active compound was mixed with the aforementioned amount of the solvent containing the aforementioned amount of the emulsifier, and the mixture was diluted to a prescribed concentration with water.
Leaves of sweet potate were soaked in the test agent diluted to a prescribed concentration with water, air-dried, and placed in a dish of 9 cm in diameter. Into this dish, 10 larvae of Spodoptera litura at the third instar were released and kept in a room at constant temperature of 25° C. After 2 and 4 days, more leaves of sweet potato were added, and the number of dead larvae after 7 days was counted to calculate the death rate. In this test, the test results are presented as an average of the results of two dishes per section.

[3] = system: Musca domestica; assay: whole plant or invertebrate; settings: read-out: activity (mortality in %)
[4] = system: Boophilus microplus; assay: whole plant or invertebrate; settings: Rhipicephalus microplus, 168 h, read-out: activity (mortality in %)
[5] = system: Aulacophora femoralis; assay: Test against Aulacophora femoralis (leaf dip); assay type: in vivo; settings: 100 ppm of the active compound; second instar larvae; after 7 days
Method: as §1
Leaves of cucumbers were soaked in a diluted aqueous solution of the prescribed concentration of an active compound prepared in the same manner as in the aforementioned tests, air-dried, and placed a plastic cup containing sterilized black soil. Into this cup, 5 larvae of Aulacophora femoralis at second instar were then released. After 7 days, the number of dead larvae was counted to calculate the death rate.

[6] = system: Amblyomma hebraeum; assay: Test against Amblyomma hebraeum (nymph dip); assay type: in vivo; settings: 1008 h, read-out: activity (mortality in %)
Method: Nymphs of the tick Amblyomma hebraeum are placed in perforated plastic beakers and immersed in aqueous compound solution for one minute. Ticks are transferred to a filter paper in a Petri dish and incubated in a climate chamber for 42 days.

[7] = system: organic phosphorus agent- and carbamate agent-resistant Myzus persicae; assay: Test against organic phosphorus agent- and carbamate agent-resistant Myzus persicae (spray); assay type: in vivo; settings: 500 ppm of the active compound; adults on eggplant; 7 days at 28° C.
Method: as §1
About 30 to 50 adults of organic phosphorus agent- and carbamate agent-resistant Myzus persicae per seedling were inoculated to leaves of eggplants at two leaf stage cultured in a pot of 6 cm in diameter. One day after the inoculation, an ample amount of the diluted aqueous solution of the prescribed concentration of an active compound prepared in the same manner as in the aforementioned tests was sprayed with a spray gun. After the spraying, the pot was kept in a greenhouse at 28° C. for 7 days, the death rate was calculated. The test was duplicated.

[8] = system: Lucillia cuprina; assay: Test against Lucillia cuprina (Example 7-1, dimethylformamide); assay type: in vivo; settings: 100 ppm of the active ingredient; larvae on minced horsemeat
Method: (§2) In order to prepare an appropriate formulation of an active compound, 10 mg of the active compound was dissolved in 0.5 mL of the aforementioned solvent, and the mixture was diluted to a prescribed concentration with water.
About 20 to 30 larvae of Lucillia cuprina were placed into a test tube containing 1 cm^3 of minced horsemeat and 0.5 mL of an aqueous solution of a compound prepared as above.
After a certain period of time, the death rate of Lucillia cuprina was calculated. For this test, the death rate of 100% means death of all Lucillia cuprina, while the death rate of 0% means that all the flies survived.

[9] = system: Boophilus microplus; assay: Test against Boophilus microplus (injection, Example 6-1, dimethylformamide); assay type: in vivo; settings: dose of 20 ug/animal; injection into abdomen of fully fed adult females
Method: as §2
A solution of a compound formulated as above was injected into 5 fully fed adult female Boophilus microplus in their abdomen. These Boophilus microplus were transferred to a replica dish and kept in an incubating cabinet for a certain period of time.
After a certain period of time, the death rate of Boophilus microplus was calculated. In this test, the death rate of 100% means death of all Boophilus microplus, while the death rate of 0% means that all the mites survive.

[10] = system: Musca domestica; assay: Test against Musca domestica (Example 8-1, dimethylformamide); assay type: in vivo; settings: 100 ppm of the active ingredient; adults, sugar/compound soaked sponge
Method: In order to prepare an appropriate formulation of an active compound, 10 mg of the active compound was dissolved in 0.5 mL of the above solvent, and the resultant mixture was diluted to a prescribed concentration with water.
As a preparatory stage, a mixture of sugar and an aqueous solution of a compound prepared as above was absorbed into a sponge of a given size, and the sponge was place into a test container. 10 adult insects of Musca domestica were placed into the container, and the container was covered with a perforated cover.
After a certain period of time, the death rate of Musca domestica is calculated. In this test, the death rate of 100% means death of all Musca domestica, while the death rate of 0% means that all the flies survived.

[11] = system: Ctenocephalides felis; assay: Test against Ctenocephalides felis (Example 5-1, blood feeding, dimethylformamide); assay type: in vivo; settings: 100 ppm of the active ingredient; adults fed on treated blood
Method: In order to prepare an appropriate formulation of an active compound, 10 mg of the active compound is dissolved in 0.5 mL of the aforementioned solvent, and the mixture is diluted to a prescribed concentration with blood from domestic animals.
About 10 to 15 adults of Ctenocephalides felis were kept in a flea-specific container. Another container containing the blood solution containing the compound prepared as described above was covered with a laboratory film [[…]™]. The blood containing container was turned upside down and placed on the flea-specific container. This system enables Ctenocephalides felis to suck the blood in the container. The blood solution was kept at 37° C. and the flea-specific container was kept at room temperature. After a certain period of time, the death rate of Ctenocephalides felis was calculated. For this test, the death rate of 100% means death of all Ctenocephalides felis, while the death rate of 0% means that all the fleas survived.

[12] = system: Ctenocephalides felis felis; assay: Efficacy against fleas Ctenocephalides felis felis on cats; assay type: in vivo; settings: 0.1 ml/kg (15 mg/kg) applied as Spot-on, once on day 0, weekly reinfestation
Method: On study days −4 and −1 prior to treatment cats are infested with about 100 adult not fed fleas (Ctenocephalides felis felis). The fleas are released on the neck on the fur of the cats
On study day 0 the flea infestation rate is checked by counting the fleas on the animals. The number of live fleas is recorded.
After flea counting the cats are treated with the investigational product. Cats of the control group are left untreated and serve as negative control group. The investigational veterinary product is applied dermally as one spot at a dose volume of 0.1 to 0.2 ml/kg body weight. Treatment is performed only once on study day 0. Only healthy cats are treated and included in the study.
Flea counts are performed on study days 1 and/or 2 where the cats are combed and the number of live fleas recorded. The results are documented.
In weekly intervals the cats are reinfested with about 100 adult not fed fleas per cat. One and/or two days after reinfestation the cats are combed and the live fleas counted for each animal. The results are recorded.
Efficacy should be given over a three to four week period
For the calculation of the effectiveness the modified Abbott formula is used: […]

[13] = system: Ixodes ricinus; assay: Efficacy against ticks (Ixodes ricinus) on cats; assay type: in vivo; settings: 0.1 ml/kg (15 mg/kg) applied as Spot on, once on day 0, weekly reinfestation
Method: On study days −4 and/or −1 cats are sedated with a combination of the active ingredients ketaminhydrochloride and acepromazinmaleat. After all cats are sedated (approximately after 10-15 minutes) the cats are placed in single cages and 50 Ixodes ricinus ticks (25 female and 25 male) are released on the fur on the back of the cat. The cats are sleeping for about 1 h to 1.5 h and restrained from grooming and removing the ticks.
On study days −3 or 0 tick infestation rate is checked, while the cats are placed on an examination table. The area around the head, ears, eyes, neck and lateral and ventral part of the body and between the toes is checked intensively. The number of live attached engorged ticks is counted and recorded. Dead ticks are removed.
After tick counting on study day 0 treatment is performed. Cats of the control group are left untreated and serve as negative control group. The investigational veterinary product is applied as one single spot on the skin at the base of the skull. Treatment is performed only once on day 0. […]
On study day 1 and/or 2 tick counts are performed and the number of life or dead attached ticks counted and recorded. […]
In weekly intervals each cat is infested with 50 Ixodes ricinus ticks (25 female and 25 male) and tick counts are performed 1 and/or 2 days after reinfestation. Life and dead attached ticks are counted and recorded. […]

**Q.** `CC(=S)NCc1ccc(C2=NOC(c3cc(Cl)cc(Cl)c3)(C(F)(F)F)C2)cc1Br` (centres unmarked) [1-44, N-{2-bromo-4-[5-(3,5-dichlorophenyl)-5-(trifluoromethyl)-4,5-dihydroisoxazol-3-yl]benzyl}ethanethioamide] was tested. Which mortality at 100 ppm [1] did it give?
**A.** The mortality at 100 ppm was no less than 80%.

**Q.** What about the death rate [2] of the same molecule?
**A.** The death rate was 100%.

**Q.** What about the mortality at 100 ppm [3] of the same molecule?
**A.** Its mortality at 100 ppm is no less than 80%.

**Q.** What about the mortality at 100 ppm [4] of the same molecule?
**A.** Its mortality at 100 ppm is no less than 80%.

**Q.** What about the death rate [5] of the same molecule?
**A.** Its death rate is 100%.

**Q.** And the mortality at 100 ppm [6]?
**A.** The mortality at 100 ppm was no less than 80%.

**Q.** What does the source list for `CC(=O)N(Cc1ccccn1)Cc1ccc(C2=NOC(c3cc(Cl)cc(Cl)c3)(C(F)(F)F)C2)cc1C#N` (centres unmarked) [1-61, N-{2-cyano-4-[5-(3,5-dichlorophenyl)-5-(trifluoromethyl)-4,5-dihydroisoxazol-3-yl]benzyl}-N-(pyridin-2-ylmethyl)acetamide]?
**A.** mortality at 100 ppm [1]: ≥ 80%; death rate [2]: 100%; death rate [7]: 100%; mortality at 100 ppm [3]: ≥ 80%; death rate [5]: 100%

**Q.** Which results are given for `CC(=O)N(Cc1ccccn1)Cc1ccc(C2=NOC(c3cc(Cl)cc(Cl)c3)(C(F)(F)F)C2)cc1C` (centres unmarked) [1-64]?
**A.** death rate [8]: more than 80%; death rate [9]: more than 80%; death rate [10]: more than 80%; death rate [11]: more than 80%

**Q.** `CC(=O)NCc1ccc(C2=NOC(c3cc(Cl)c(Cl)c(Cl)c3)(C(F)(F)F)C2)cc1Br` (centres unmarked) [1-129] was tested. Which “efficacy (modified Abbott formula)” value [12] did it give?
**A.** The value was greater than 95%.

**Q.** And the “efficacy (modified Abbott formula)” value [13]?
**A.** Its value is greater than 90%.

From patent publication US8372867B2, “Insecticidal aryl isoxazoline derivatives” (Bayer CropScience AG, priority 2007, dated 2013)
